Reference: patent EP3603649A1 (priority 2018, dated 2020)

Tests used:
[1] = system: endothelial cells of the BBB; conditions: cited from earlier work
[2] = target: Hamster recombinant full length PrP (Mesocricetus auratus, UniProt P04273); format: biochemical
in vitro = conditions: mouse, cerebellar granule neurons
PrP^res = system: PrP^res; design: species or system C57BL/6 mice; conditions: mouse, in vivo

Sequence of Hamster recombinant full length PrP (P04273 23-254 limits assumed): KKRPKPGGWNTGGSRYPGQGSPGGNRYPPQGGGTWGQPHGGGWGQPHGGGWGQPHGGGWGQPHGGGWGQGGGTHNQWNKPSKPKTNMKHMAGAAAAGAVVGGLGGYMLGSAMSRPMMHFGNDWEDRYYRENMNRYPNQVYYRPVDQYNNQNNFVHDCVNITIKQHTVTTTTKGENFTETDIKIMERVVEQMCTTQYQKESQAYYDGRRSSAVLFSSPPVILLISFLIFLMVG

Row | Compound | toxicity on endothelial cells of the BBB [1] | concentration of maximum effect on lag phase [2] | lag phase (time for the reaction to start) [2] | MCC at 72 h (in vitro) | PrP^res accumulation in brain (difference between the groups) (PrP^res)
1 | trimethyl-β-cyclodextrin [TRIMEB] | more toxic than α-cyclodextrin |  |  |  | 
2 | COC[C@H]1O[C@@H]2O[C@H]3[C@H](O)[C@@H](OC)[C@@H](O[C@H]4[C@H](O)[C@@H](OC)[C@@H](O[C@H]5[C@H](O)[C@@H](OC)[C@@H](O[C@H]6[C@H](O)[C@@H](OC)[C@@H](O[C@H]7[C@H](O)[C@@H](OC)[C@@H](O[C@H]8[C@H](O)[C@@H](OC)[C@@H](O[C@H]1[C@H](O)[C@H]2OC)O[C@@H]8COC)O[C@@H]7COC)O[C@@H]6COC)O[C@@H]5COC)O[C@@H]4COC)O[C@@H]3COC [DIMEB, heptakis(2,6-O-dimethyl)beta-cyclodextrin] |  | 100 µM | significantly increased | > 500 µM | did not show any difference
